The values that follow come from patent US12421264B2 (INSTITUT NATIONAL DE LA RECHERCHE SCIENTIFIQUE, priority 2018, dated 2025).

Data set [1] concerns N. meninigitidis (LNP24198) expressing luciferase (LuxABCDE). In words: N. meningitidis luminescent strain growth assay (16 h). The data set is classed as cell-based, Neisseria meningitidis. Particulars: for MIC: 16 h. How it is done:
N. meningitidis Luminescent Strain Growth Assay (16 h)
To perform the library screening (FIG. 1) or to compare the activity of the different boron-containing salts (FIG. 3), the amount of light produced after 16 h of growth for N. meningitidis luminescent strain was measured. Contrarily to optical density (OD) readings which can be misleading due to the absorbance of dead cells, this measurement is directly correlated to the number of live cells, as the half-life of the luciferase and its substrate are limited and that the emission of light is therefore not subsisting after the death of the cells. To perform this assay, N. meninigitidis (LNP24198) expressing luciferase (LuxABCDE) was grown overnight under the control of the constitutive promoter porBp in GCB agar media, and a cell-suspension corresponding to an OD600=0.01 was subsequently prepared. In parallel, fresh stock DMSO solutions of the compounds were prepared (100×, with final concentrations being indicated in the different figures) and 1.8 μL of the corresponding solutions were added per well of 96-well plates. In each well, 178.2 μL of bacterial suspension were subsequently added. Bacteria were allowed to grow during 16 h at 37° C. with 5% CO2. The emitted light was measured using a 96-well plate luminometer (PerkinElmer Wallac 1420 Victor^3) and results are expressed in relative light unit (RLU). All these assays were performed at least in triplicates.
To screen molecules for their antibacterial activity, a luminescent system was used, as previously described for other bacteria. A clinical isolate of N. meninigitidis (LNP24198) expressing luciferase (LuxABCDE) under the control of the constitutive promoter porBp was used, as similarly described, located in the intergenic region next to NMB1732. More than 2400 compounds from different origins were screened to identify candidates with the ability to inhibit the growth of N. meningitidis after 16 h at 37° C. […] It is noteworthy that stock solutions for all tested compounds were prepared in DMSO and that the final DMSO concentration of the tested solutions was kept at 1%, a concentration which has proven not to affect the growth of N. meningitidis (FIG. 1A). […] An investigation of the effect of the BPh4^− moiety was then pursued.
To exclude any salt-specific effect, the effect of several BPh4^− and BF4^− salts on the growth of N. meningitidis luminescent strain was tested. The growth of N. meningitidis was measured after a 16 h-exposure to different concentrations of various BPh4^− and BF4^− salts. From this assay, the MIC (minimum inhibitory concentration, the lowest concentration that prevents visible bacterial growth, <800 RLU) was calculated. All BPh4 salts tested (sodium, ammonium and potassium) were all highly toxic for N. meningitidis.
Several borate compounds were prepared and their ability to inhibit N. meningitidis growth was assessed using the luminescent system described at Example 2.

Data set [2] in a line: Partition coefficient (Log P), shaking flask method (HPLC-UV). The format is physicochemical. The settings on record: octanol/water. The source says:
As well-known to the skilled person, when expressing lipophilicity as log P, P is the partition coefficient; that is the ratio of the concentrations of the compound between a hydrophobic phase and a hydrophilic phase (forming a biphasic liquid mixture), generally water and octanol.
The measurement of log P is well described in the literature—see e.g. Román, I. P.; Mastromichali, A.; Tyrovola, K.; Canals, A.; Psillakis, E. Rapid Determination of Octanol-Water Partition Coefficient Using Vortex-Assisted Liquid-Liquid Microextraction. J. Chromatogr. A 2014, 1330, 1-5; and Yiantzi, E.; Psillakis, E.; Tyrovola, K.; Kalogerakis, N. Vortex-Assisted Liquid-Liquid Microextraction of Octylphenol, Nonylphenol and Bisphenol-A. Talanta 2010, 80 (5), 2057-2062, both of which are incorporated herein by reference.
Partition coefficients (Log P) were determined using the shaking flask method (HPLC-UV)—see Román, I. P.; Mastromichali, A.; Tyrovola, K.; Canals, A.; Psillakis, E. Rapid Determination of Octanol-Water Partition Coefficient Using Vortex-Assisted Liquid-Liquid Microextraction. J. Chromatogr. A 2014, 1330, 1-5; and Yiantzi, E.; Psillakis, E.; Tyrovola, K.; Kalogerakis, N. Vortex-Assisted Liquid-Liquid Microextraction of Octylphenol, Nonylphenol and Bisphenol-A. Talanta 2010, 80 (5), 2057-2062, both of which are incorporated herein by reference.

Data set [3] concerns N. gonorrhoeae (LNP16626). Briefly: Bacterial survival assay (3 h), CFU counts. The data set is classed as cell-based, Neisseria gonorrhoeae. The settings on record: 50 μM, 3 h, CFU counts. The procedure:
(§1) Bacterial Survival Assay (3 h)
(§2) To measure bacterial survival (FIGS. 2 and 4), different bacteria were exposed to various concentrations of the compounds (as indicated) in their specific growth media (see the culture conditions above) for 3 h at 37° C. To perform this assay, all strains were grown overnight in their corresponding agar media. Cell-suspension corresponding to an OD600=0.05 were subsequently prepared. In parallel, fresh stock DMSO solutions of the compounds were prepared (100×, with final concentrations being indicated in the different figures) and 1.8 μL of the corresponding solutions were added per well of 96-well plates. In each well, 178.2 μL of bacterial suspension were subsequently added. Bacteria were allowed to grow during […] at 37° C. with 5% CO2. After incubation, serial dilutions (until 10^−6) were performed and 50 μL of each diluted solution were spread on agar plates. After an overnight incubation at 37° C. with/without 5% CO2, CFU were enumerated. All these assays were performed at least in triplicates.
(§3) Therefore, the bactericidal activity was assessed for the 4 compounds harboring a BPh4^− identified from the initial screen described above (AnIII-7, AnIII-6, AnII-18, NaBPh4). N. meningitidis was treated with 50 μM of each compound and the % survival cells (compared with DMSO 1% control) was measured using serial dilutions and CFU counts. […] To verify if the bactericidal effect could be observed for the other pathogen of the Neisseria family, a clinical isolate of. N. gonorrhoeae (LNP16626 [3]) was also treated with 50 μM of the same compounds, respectively, using the same assay.
(§4) The MBC (minimum bactericidal concentration that kill >99.999%), the concentration necessary to completely abrogate bacterial survival after a 3 h exposure to NaBPh4, was next assessed.

Data set [4] deals with N. meningitidis. In words: Bacterial survival assay (3 h), CFU counts. The format is cell-based, Neisseria meningitidis. The settings on record: 50 μM, 3 h, CFU counts vs DMSO 1% control. How it is done:
as §1, §2, §3, §4

[5] abbreviates: minimum inhibitory concentration, N. meningitidis growth, luminescent system (<800 RLU).

Converted amounts (≈) assume the structure as drawn.

A word on the MIC: it is the lowest concentration found to suppress growth. As a reminder, the logP is a log measure of how a compound divides between an organic and an aqueous phase. A higher logP goes with higher lipophilicity. In general, Log P refers to a log measure of how a compound divides between an organic and an aqueous phase.

Take `F[B-](F)(F)c1ccccc1.[K+]` [Compound 2, Potassium trifluoro(phenyl)borate, reference compound]: the MIC in data set [1] (setting [5]) is >250 µM.
With `c1ccc([B-]2(c3ccccc3)[NH2+]CCO2)cc1` [Compound 22], the minimal inhibitory concentration (MIC) in data set [1] (Neisseria meningitidis) was 75 µM (≈ 16.9 µg/mL).
Regarding `CC[C@H]1OC(=O)[C@H](C)[C@@H](O[C@H]2C[C@@](C)(OC)[C@@H](O)[C@H](C)O2)[C@H](C)[C@@H](O[C@@H]2O[C@H](C)C[C@H](N(C)C)[C@H]2O)[C@](C)(O)C[C@@H](C)C(=O)[C@H](C)[C@@H](O)[C@]1(C)O` [erythromycin, reference compound], the “emitted light after 16 h of growth” value in data set [1] (erythromycin 3.5 μM, largest value of 10 replicates) is < 800 RLU.
Molecule `CCC[B-](c1ccccc1)(c1ccccc1)c1ccccc1` [Compound 7, Sodium n-propyltriphenylborate] showed a logP in data set [2] of 0.8 ± 0.2. In data set [1] (Neisseria meningitidis), this molecule had a minimum inhibitory concentration (MIC) of 5 µM.
As to “Sodium bis(4-methylphenyl)diphenylborate [Compound 13]”, the “Log P” value in data set [2] amounted to 2.0±0.1. The MIC in data set [1] (setting [5]) was 5 µM.
In the case of `CC[B-](c1ccccc1)(c1ccccc1)c1ccccc1` [Compound 6, Sodium ethyltriphenylborate], the logP in data set [2] is 0. For the same molecule, the lowest concentration to inhibit growth in data set [1] (Neisseria meningitidis) (MIC) was 25 µM.
“Potassium difluorodiphenylborate [Compound 3]” registered an MIC in data set [1] (setting [5]) of 37.5 µM.
Molecule `CCCCCCCC[B-](c1ccccc1)(c1ccccc1)c1ccccc1` [Compound 11, Sodium octyltriphenylborate] had a logP in data set [2] of 4.1 ± 0.3. This molecule also registered an MIC in data set [1] (Neisseria meningitidis) of 1 µM.
Molecule `Fc1ccc([B-](c2ccc(F)cc2)(c2ccc(F)cc2)c2ccc(F)cc2)cc1` [Compound 16, sodium tetrakis(4-fluorophenyl)borate] yielded a minimal inhibitory concentration (MIC) in data set [1] (Neisseria meningitidis) of 2.5 µM.
Regarding `Oc1ccc2ccccc2c1/C=N/c1ccc([B-](c2ccccc2)(c2ccccc2)c2ccccc2)cc1` [Compound 19, sodium {4-[(E)-[(2-hydroxynaphthalen-1-yl)methylidene]amino]phenyl}triphenylborate], the MIC in data set [1] (Neisseria meningitidis) worked out at 2.35 µM.
The molecule `CCCCCCC[B-](c1ccccc1)(c1ccccc1)c1ccccc1` [Compound 10, Sodium heptyltriphenylborate] had a logP in data set [2] of 3.1 ± 0.05. Besides, the MIC in data set [1] (Neisseria meningitidis) turned out to be 1 µM.
The corresponding values for `C[B-](c1ccccc1)(c1ccccc1)c1ccccc1` [Compound 5, Sodium methyltriphenylborate] are -0.96 ± 0.1 and 25 µM.
Consider `Cc1ccc([B-](c2ccccc2)(c2ccccc2)c2ccccc2)cc1.[Na+]` [Compound 12, Sodium tolyltriphenylborate], for which the “Log P” value in data set [2] is given as 0.41±0.02. In addition, in data set [1] (setting [5]), the MIC turned out to be 25 µM.
`F[B-](F)(F)F` [BF4, reference compound]: the log partition coefficient (Log P) in data set [2] is reported as “about −1.6”. The “survival of N. gonorrhoeae” value in data set [3] is “does not exhibit anti-bacterial activity”. Also, the “survival of N. meningitidis” value in data set [4] is listed as “does not exhibit anti-bacterial activity”.
As for `c1ccc(B(c2ccccc2)c2ccccc2)cc1` [BPh3, triphenylborane, reference compound], the “toxicity / effect on growth of N. meningitidis luminescent strain (FIG. 3)” value in data set [1] (16 h-exposure, different concentrations) was “No observable toxicity”.
In data set [2], `CCCCCC[B-](c1ccccc1)(c1ccccc1)c1ccccc1` [Compound 9, Sodium hexyltriphenylborate] returned a logP of 2.83 ± 0.02. For the same molecule, 1 µM was the least that counted as inhibitory in data set [1] (Neisseria meningitidis) (MIC).
On to `Cc1ccc([B-](c2ccccc2)(c2ccc(C)cc2)c2ccc(C)cc2)cc1.[Na+]` [Compound 14, Sodium tris(4-methylphenyl)(phenyl)borate], for which, in data set [2], the “Log P” value is reported as 2.5±0.2. Besides, the MIC in data set [1] (setting [5]) came to 5 µM.
In the case of “Sodium tetrafluoroborate [Compound 4, reference compound]”, the MIC in data set [1] (setting [5]) was >250 µM.
For the molecule `Cc1ccc([B-](c2ccc(C)cc2)(c2ccc(C)cc2)c2ccc(C)cc2)cc1.[Na+]` [Compound 15, sodium tetrakis(tolyl)borate], the MIC entry in data set [1] (setting [5]) is given as “Active but MIC not determined because of abnormal background signal”.
As to `c1ccc(P(c2ccccc2)c2nc3ccccc3n2Cc2ccc([B-](c3ccccc3)(c3ccccc3)c3ccccc3)cc2)cc1` [Compound 21], the minimal inhibitory concentration (MIC) in data set [1] (Neisseria meningitidis) is 0.78 µM.
